{
  "source": "paper PMC10223608",
  "about": "“Structural Congeners of Izenamides Responsible for Cathepsin D Inhibition: Insights from Synthesis-Derived Elucidation” (Marine Drugs, 2023)",
  "key": {"Human liver cathepsin D": {"target": "T1, Human liver cathepsin D (Homo sapiens, UniProt P07339)", "T1 construct": "tissue Eurofins Panlabs Discovery Services (ran the assay); host or cells: human liver", "T1 sequence (P07339 65-412)": "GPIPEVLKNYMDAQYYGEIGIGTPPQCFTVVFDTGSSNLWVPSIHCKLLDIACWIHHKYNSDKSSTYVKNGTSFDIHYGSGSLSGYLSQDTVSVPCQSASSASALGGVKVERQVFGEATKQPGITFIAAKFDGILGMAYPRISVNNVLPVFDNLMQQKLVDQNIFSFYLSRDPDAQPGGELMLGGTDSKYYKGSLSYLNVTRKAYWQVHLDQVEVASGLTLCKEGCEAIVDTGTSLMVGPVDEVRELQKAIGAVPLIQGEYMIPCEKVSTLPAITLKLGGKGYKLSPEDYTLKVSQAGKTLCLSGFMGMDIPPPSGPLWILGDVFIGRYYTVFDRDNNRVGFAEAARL", "assay": "Cathepsin D (CTSD) human pepsin aspartic peptidase enzymatic assay (Eurofins Panlabs)", "assay_type": "biochemical", "conditions": "for Inhibition of CTSD (%): 190 mU/mL enzyme, modified acetate buffer pH 4.0, 15 min preincubation at 37 °C, 20 μM MOCAc substrate for 10 min, spectrofluorimetric read-out, duplicate, N.A. = not active", "procedure": "The CTSD-inhibition assay was performed at Eurofins Panlabs Discovery Services by measuring the percentage inhibition at concentrations of 0.5 and 1.0 μM (Table 1).\nHuman liver cathepsin D was used for the enzymatic essay. Test compound or vehicle was preincubated with 190 mU/mL enzyme in modified acetate buffer pH 4.0 for 15 minutes at 37 °C. The reaction was initiated by addition of 20 μM MOCAc-[…]Dnp)-D-Arg NH2 for another 10-minute incubation period. Determination of the amount of MOCAc formed was read spectrofluorimetrically at 340 nm/400. Compounds were screened at 0.5 and 1.0 μM. Cathepsin-D-Human-Pepsin-Aspartic-Peptidase-Enzymatic-Assay-Panlabs (eurofinsdiscovery.com, accessed on 22 February 2022)."}, "CTSD": {"system": "CTSD", "conditions": "natural izenamides; cited from earlier work", "from_the_text": "In 2018, izenamides A-C (1–3), which are linear depsipeptides, were first isolated from the marine cyanobacterium 1605-5 by Suenaga et al (Figure 1). Izenamides A (1) and B (2) contain four amino acids (Pro-O-Me, N-Me-Phe, Ala, and Ile); two α-hydroxy acids (two valic acids for 1, and one valic acid and one isoleucic acid for 2); and a γ-amino-β-hydroxy acid moiety known as statine [(3S,4S)-4-amino-3-hydroxy-6-methylheptanoic acid, Sta]. Izenamide C (3) also contains Pro-O-Me, N-Me-Phe, Ile, and valic acid; however, it contains Gly in place of Ala in 1 and 2, as well as isoleucic acid. ..."}},
  "data": [
    {"substance": "Sta-incorporated-izenamide C [Compound 7]", "values": [
      {"measurement": "Inhibition of CTSD (%)", "setting": "Human liver cathepsin D; 0.5 μM compound", "result": 26.99, "unit": "%"},
      {"measurement": "Inhibition of CTSD (%)", "setting": "Human liver cathepsin D; 1.0 μM compound", "result": 36.07, "unit": "%"}
    ]},
    {"substance": "izenamide A [Compound 1]", "values": [
      {"measurement": "Inhibition of CTSD (%)", "setting": "Human liver cathepsin D; 0.5 μM compound", "result": 10.13, "unit": "%"},
      {"measurement": "Inhibition of CTSD (%)", "setting": "Human liver cathepsin D; 1.0 μM compound", "result": 15.55, "unit": "%"},
      {"measurement": "inhibitory activities against CTSD in vitro (in words)", "setting": "CTSD", "result": "moderate inhibitory activities"}
    ]},
    {"substance": "izenamide C [Compound 3]", "values": [
      {"measurement": "CTSD-inhibitory activity (in words)", "setting": "Human liver cathepsin D; screened at 0.5 and 1.0 μM", "result": "no CTSD inhibition"},
      {"measurement": "inhibitory activities against CTSD in vitro (in words)", "setting": "CTSD", "result": "does not show CTSD inhibition"}
    ]},
    {"substance": "izenamide B [Compound 2]", "values": [
      {"measurement": "Inhibition of CTSD (%)", "setting": "Human liver cathepsin D; 0.5 μM compound", "result": 8.12, "unit": "%"},
      {"measurement": "Inhibition of CTSD (%)", "setting": "Human liver cathepsin D; 1.0 μM compound", "result": 14.76, "unit": "%"},
      {"measurement": "inhibitory activities against CTSD in vitro (in words)", "setting": "CTSD", "result": "moderate inhibitory activities"}
    ]},
    {"substance": "18-epi-izenamide B [Compound 8]", "values": [
      {"measurement": "Inhibition of CTSD (%)", "setting": "Human liver cathepsin D; 0.5 μM compound", "result": 37.29, "unit": "%"},
      {"measurement": "Inhibition of CTSD (%)", "setting": "Human liver cathepsin D; 1.0 μM compound", "result": 40.96, "unit": "%"}
    ]}
  ]
}
